# US20240140957A1, “BRIDGED COMPOUNDS AS KRAS G12D INHIBITOR AND DEGRADER AND THE USE THEREOF” (BeiGene Switzerland GmbH, priority 2021, published 2024)
# Molecular target: GDP-loaded KRAS G12D (Homo sapiens, UniProt P01116, G12D)
# Test: KRAS G12D Probe Displacement Assay
# Type: binding
# Conditions: KRAS G12D 0.5 nM, biotinylated probe 2 4 nM; Table 6 letters; read-out: KRAS G12D Probe Displacement Assay IC50 (class)
# Chain of GDP-loaded KRAS G12D (P01116 1-188 isoform P01116-2 G12D): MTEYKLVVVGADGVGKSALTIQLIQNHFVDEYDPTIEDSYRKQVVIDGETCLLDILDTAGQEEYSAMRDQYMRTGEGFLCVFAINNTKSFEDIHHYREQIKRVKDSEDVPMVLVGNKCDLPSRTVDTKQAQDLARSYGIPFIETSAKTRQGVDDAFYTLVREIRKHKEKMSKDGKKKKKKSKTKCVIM
row,SMILES,IC50
1,"Nc1nc2c(-c3c(C(F)(F)F)cc4c(N5CC6CCC(C5)N6)nc(OCC(F)(F)CO)nc4c3F)ccc(F)c2s1 [Example E153, 3-((7-(2-amino-7-fluorobenzo[d]thiazol-4-yl)-4-(3,8-diazabicyclo [3.2.1]octan-3-yl)-8-fluoro-6-(trifluoromethyl)quinazolin-2-yl)oxy)-2,2-difluoropropan-1-ol]",< 50 nM
2,"Cc1cc(N)nc(-c2c(C3CC3)cc3c(N4CC5CCC(C4)N5)nc(OC[C@@]45CCCN4C[C@H](F)C5)nc3c2F)c1C(F)(F)F [Example E129, 6-(4-(3,8-diazabicyclo[3.2.1]octan-3-yl)-6-cyclopropyl-8-fluoro-2-(((2R,7aS)-2-fluorotetrahydro-1H-pyrrolizin-7a(5H)-yl)methoxy)quinazolin-7-yl)-4-methyl-5-(trifluoromethyl)pyridin-2-amine]",< 50 nM
3,"Nc1nc2c(-c3c(SC(F)(F)F)cc4c(N5CC6CCC(C5)N6)nc(OC[C@@]56CCCN5C[C@H](F)C6)nc4c3F)ccc(F)c2s1 [Example E94, 4-(4-(3,8-diazabicyclo[3.2.1]octan-3-yl)-8-fluoro-2-(((2R,7aS)-2-fluorotetrahydro-1H-pyrrolizin-7a(5H)-yl)methoxy)-6-((trifluoromethyl)thio)quinazolin-7-yl)-7-fluorobenzo[d]thiazol-2-amine]",< 50 nM
4,"Nc1nc2c(-c3c(C(F)(F)F)cc4c(N5CC6CCC(C5)N6)nc(OCC5CCOC5)nc4c3F)ccc(F)c2s1 (stereo not drawn) [Example E145, 4-(4-(3,8-diazabicyclo[3.2.1]octan-3-yl)-8-fluoro-2-((tetrahydrofuran-3-yl)methoxy)-6-(trifluoromethyl)quinazolin-7-yl)-7-fluorobenzo [d]thiazol-2-amine]",< 50 nM
5,"COCC1CC2(COc3nc(N4CC5CCC(C4)N5)c4cc(C(F)(F)F)c(-c5ccc(F)c6sc(N)nc56)c(F)c4n3)CC(F)CN12 (stereo not drawn) [Example E134, 4-(4-(3,8-diazabicyclo[3.2.1]octan-3-yl)-8-fluoro-2-((3-fluoro-7-(methoxymethyl)-1-azabicyclo[3.2.0]heptan-5-yl)methoxy)-6-(trifluoromethyl)quinazolin-7-yl)-7-fluorobenzo[d]thiazol-2-amine]",< 50 nM
6,"Cc1cc(N)nc(-c2c(SC(F)(F)F)cc3c(N4CC5CCC(C4)N5)nc(OC[C@@]45CCCN4C[C@H](F)C5)nc3c2F)c1C(F)(F)F [Example E92, 6-(4-(3,8-diazabicyclo[3.2.1]octan-3-yl)-8-fluoro-2-(((2R,7aS)-2-fluorotetrahydro-1H-pyrrolizin-7a(5H)-yl)methoxy)-6-((trifluoromethyl)thio)quinazolin-7-yl)-4-methyl-5-(trifluoromethyl)pyridin-2-amine]",< 50 nM
7,"F[C@H]1CN2CCC[C@@]2(COc2nc(N3CC4CCC(C3)N4)c3cc(Cl)c(-n4ncc5cccc(Cl)c54)cc3n2)C1 [Example E136, 4-(3,8-diazabicyclo[3.2.1]octan-3-yl)-6-chloro-7-(7-chloro-1H-indazol-1-yl)-2-(((2R,7aS)-2-fluorotetrahydro-1H-pyrrolizin-7a(5H)-yl)methoxy)quinazoline]",> 1000 nM
8,N#CC1(CCOc2nc(N3CC4CCC(C3)N4)c3cc(C(F)(F)F)c(-c4ccc(F)c5sc(N)nc45)c(F)c3n2)CC1 [Example E155],< 50 nM
9,"Cc1cc(N)nc(-c2cc3nc(OC[C@@]45CCCN4C[C@H](F)C5)nc(N4CC5CCC(C4)N5)c3cc2Cl)c1C(F)(F)F [Example E117, 6-(4-(3,8-diazabicyclo[3.2.1]octan-3-yl)-6-chloro-2-(((2R,7aS)-2-fluorotetrahydro-1H-pyrrolizin-7a(5H)-yl)methoxy)quinazolin-7-yl)-4-methyl-5-(trifluoromethyl)pyridin-2-amine]",< 50 nM
10,"Nc1nc2c(-c3c(C(F)(F)F)cc4c(N5CC6CCC(C5)N6)nc(OC[C@H]5CNC(=O)CO5)nc4c3F)ccc(F)c2s1 [Example E179, (6R)-6-(((7-(2-amino-7-fluorobenzo[d]thiazol-4-yl)-4-(3,8-diazabicyclo[3.2.1]octan-3-yl)-8-fluoro-6-(trifluoromethyl)quinazolin-2-yl)oxy)methyl)morpholin-3-one]",< 50 nM
11,"N#Cc1cc(N)nc(-c2c(Cl)cc3c(N4CC5CCC(C4)N5)nc(OC[C@@]45CCCN4C[C@H](F)C5)nc3c2F)c1C(F)(F)F [Example E109, 2-(4-(3,8-diazabicyclo[3.2.1]octan-3-yl)-6-chloro-8-fluoro-2-(((2R,7aS)-2-fluorotetrahydro-1H-pyrrolizin-7a(5H)-yl)methoxy)quinazolin-7-yl)-6-amino-3-(trifluoromethyl)isonicotinonitrile]",< 50 nM
12,"N#CCCNC1C[C@H]2CC[C@@H]1N2c1nc(OC[C@@]23CCCN2C[C@H](F)C3)nc2c(F)c(-c3ccc(F)c4sc(N)nc34)c(C(F)(F)F)cc12 (stereo partly drawn) [Example E124, 3-(((1S,4R)-7-(7-(2-amino-7-fluorobenzo[d]thiazol-4-yl)-8-fluoro-2-(((2R,7aS)-2-fluorotetrahydro-1H-pyrrolizin-7a(5H)-yl)methoxy)-6-(trifluoromethyl)quinazolin-4-yl)-7-azabicyclo[2.2.1]heptan-2-yl)amino)propanenitrile]",< 50 nM
13,"N#Cc1c(N)sc2c(F)ccc(-c3c(Cl)cc4c(N5CC6CCC(C5)N6)nc(OCC5(CN6CCC(F)C6)CCC5)nc4c3F)c12 (stereo not drawn) [Example E132, 4-(4-(3,8-diazabicyclo[3.2.1]octan-3-yl)-6-chloro-8-fluoro-2-((1-((3-fluoropyrrolidin-1-yl)methyl)cyclobutyl)methoxy)quinazolin-7-yl)-2-amino-7-fluorobenzo [b]thiophene-3-carbonitrile]",< 50 nM
14,"Oc1cc(F)c(C(F)(F)F)c(-c2c(Cl)cc3c(N4CC5CCC(C4)N5)nc(OC[C@@]45CCCN4C[C@H](F)C5)nc3c2F)c1 [Example E126, 3-(4-(3,8-diazabicyclo[3.2.1]octan-3-yl)-6-chloro-8-fluoro-2-(((2R,7aS)-2-fluorotetrahydro-1H-pyrrolizin-7a(5H)-yl)methoxy)quinazolin-7-yl)-5-fluoro-4-(trifluoromethyl)phenol]",< 50 nM

# Now from value to compound:
row,IC50,SMILES
1,< 50 nM,"N#CC1(COc2nc(N3CC4CCC(C3)N4)c3cc(C(F)(F)F)c(-c4ccc(F)c5sc(N)nc45)c(F)c3n2)CCOC1 (stereo not drawn) [Example E211, 3-(((7-(2-amino-7-fluorobenzo[d]thiazol-4-yl)-4-(3,8-diazabicyclo [3.2.1]octan-3-yl)-8-fluoro-6-(trifluoromethyl)quinazolin-2-yl)oxy)methyl)tetrahydrofuran-3-carbonitrile]"
2,< 50 nM,"COC(C)(CO)COc1nc(N2CC3CCC(C2)N3)c2cc(Cl)c(-c3nc(N)cc(C)c3C(F)(F)F)c(F)c2n1 (stereo not drawn) [Example E233, 3-((7-(6-amino-4-methyl-3-(trifluoromethyl)pyridin-2-yl)-4-(3,8-diazabicyclo[3.2.1]octan-3-yl)-6-chloro-8-fluoroquinazolin-2-yl)oxy)-2-methoxy-2-methyl propan-1-ol]"
3,< 50 nM,"COCC(C#N)(CO)COc1nc(N2CC3CCC(C2)N3)c2cc(Cl)c(-c3nc(N)cc(C)c3C(F)(F)F)c(F)c2n1 (stereo not drawn) [Example E204, 3-((7-(6-amino-4-methyl-3-(trifluoromethyl)pyridin-2-yl)-4-(3,8-diazabicyclo [3.2.1]octan-3-yl)-6-chloro-8-fluoroquinazolin-2-yl)oxy)-2-(hydroxymethyl)-2-(methoxymethyl)propanenitrile]"
4,< 50 nM,"Nc1nc2c(-c3c(C(F)(F)F)cc4c(N5CC6CCC(C5)N6)nc(OCCC5COC5)nc4c3F)ccc(F)c2s1 [Example E189, 4-(4-(3,8-diazabicyclo[3.2.1]octan-3-yl)-8-fluoro-2-(2-(oxetan-3-yl)ethoxy)-6-(trifluoromethyl)quinazolin-7-yl)-7-fluorobenzo[d]thiazol-2-amine]"
5,< 50 nM,"Cc1cc(N)nc(-c2c(Cl)cc3c(N4CC5CCC(C4)N5)nc(OCC(C)(C)C#N)nc3c2F)c1C(F)(F)F [Example E194, 3-((7-(6-amino-4-methyl-3-(trifluoromethyl)pyridin-2-yl)-4-(3,8-diazabicyclo[3.2.1]octan-3-yl)-6-chloro-8-fluoroquinazolin-2-yl)oxy)-2,2-dimethylpropanenitrile]"
6,< 50 nM,"CC1(COc2nc(N3CC4CCC(C3)N4)c3cc(C(F)(F)F)c(-c4ccc(F)c5sc(N)nc45)c(F)c3n2)COCCO1 (stereo not drawn) [Example E215, 4-(4-(3,8-diazabicyclo[3.2.1]octan-3-yl)-8-fluoro-2-((2-methyl-1,4-dioxan-2-yl)methoxy)-6-(trifluoromethyl)quinazolin-7-yl)-7-fluorobenzo[d]thiazol-2-amine]"
7,< 50 nM,"Nc1nc2c(-c3c(C(F)(F)F)cc4c(N5CC6CCC(C5)N6)nc(OCC5(F)CCOCC5)nc4c3F)ccc(F)c2s1 [Example E218, 4-(4-(3,8-diazabicyclo[3.2.1]octan-3-yl)-8-fluoro-2-((4-fluorotetra hydro-2H-pyran-4-yl)methoxy)-6-(trifluoromethyl)quinazolin-7-yl)-7-fluorobenzo[d]thiazol-2-amine]"
8,< 50 nM,"Nc1cc(-c2cc3nc(OC[C@@]45CCCN4C[C@H](F)C5)nc(N4CC5CCC(C4)N5)c3cc2Cl)c(C(F)(F)F)c(C(F)(F)F)c1 [Example E237, 3-(4-(3,8-diazabicyclo[3.2.1]octan-3-yl)-6-chloro-2-(((2R,7aS)-2-fluorotetrahydro-1H-pyrrolizin-7a(5H)-yl)methoxy)quinazolin-7-yl)-4,5-bis (trifluoromethyl) aniline]"
9,< 50 nM,"Cc1cc(N)nc(-c2c(Cl)cc3c(N4CC5CCC(C4)N5)nc(OCC4(C)CCC(=O)NC4)nc3c2F)c1C(F)(F)F (stereo not drawn) [Example E225, 5-(((7-(6-amino-4-methyl-3-(trifluoromethyl)pyridin-2-yl)-4-(3,8-diazabicyclo[3.2.1]octan-3-yl)-6-chloro-8-fluoroquinazolin-2-yl)oxy)methyl)-5-methylpiperidin-2-one]"
10,100 to 1000 nM,"Cc1cc(N)nc(-c2c(Cl)cc3c(N4CC5CCC(C4)N5)nc(OCC4(C)CCCOC4)nc3c2F)c1C(F)(F)F (stereo not drawn) [Example E201, 6-(4-(3,8-diazabicyclo[3.2.1]octan-3-yl)-6-chloro-8-fluoro-2-((3-methyltetrahydro-2H-pyran-3-yl)methoxy)quinazolin-7-yl)-4-methyl-5-(trifluoromethyl)pyridin-2-amine]"
